Test results as given in patent US20260097037A1, “FUSED RING COMPOUND HAVING GLP-1 RECEPTOR AGONIST EFFECT” (Shionogi & Co., Ltd., priority 2022, published 2026).
Like-named read-outs stand apart in the source and are kept apart here.

Target: T1, Human GLP-1 receptor stably expressing cells (hGLP-1R/CHO-K1 cells) (Homo sapiens, UniProt P43220)
T1 construct: expressed in transfected cells
Assay: Measurement of GLP-1 receptor agonist activity (cAMP assay)
Assay type: cell-based
Conditions: for Emax: cAMP with 2 nM human GLP-1 (7-36) = 100%, DMSO only = 0%; for EC50: increase in cAMP concentration in hGLP-1R/CHO-K1 cells, 37° C. 1 hour
Procedure: Test Example 1: Measurement of GLP-1 Receptor Agonist Activity
Human GLP-1 receptor stably expressing cells (hGLP-1R/CHO-K1 cells) are cultured in an a-MEM medium (Sigma) containing 10% FBS (Hyclone), 2% GlutaMAX (Gibco), 1% G418 (Nacalai Tesque), and 1% Penicillin-Streptomycin Mixed Solution (Sigma) at 37° C. under 5% CO2 conditions, and recovered by treating a 10 fold diluted 5.0 g/1-trypsin/5.3 mmol/1-EDTA solution (Nacalai Tesque) and cryopreserved.
A DMSO solution containing the compound of the present invention or human GLP-1 (7-36) (Phoenix Pharmaceuticals) is dispensed into a 384-well microplate (Greiner) at 62.5 nL/well, and in addition, 400 μM Forskolin (Nacalai Tesque) is dispensed therein at 7.5 nL/well. Subsequently, the frozen GLP-1 R/CHO-K1 cells are thawed in a thermostatic bath at 37° C., suspended in HBSS buffer (GIBCO) containing 0.1% BSA (Sigma), 20 mM HEPES, 0.1 mM IBMX (Sigma), and 0.2 mM RO20-1724 (Calbiochem) at 2×10^4 cells/mL, and the cell suspension is added at 6 μL/well. The solution was incubated at 37° C. for 1 hour and intracellular cAMP concentration is measured using cAMP Gs dynamic kit (Cisbio) according to the protocol attached to the product. Specifically, a cAMP-d2/Anti-cAMP-Cryptate (1/1) mixture solution is added in a total amount of 6 μL/well, and is incubated at room temperature for 1 hour, and then, time-resolved fluorescence is measured using PHERAstar (BMG Labtech).
Assuming that the cAMP concentration when human GLP-1 (7-36) is dispensed to a final concentration of 2 nM is 100% and the cAMP concentration when only DMSO is dispensed is 0%, the 50% effective concentration (EC50) and the maximum effect (Emax) of the compound of the present invention are calculated using an increase in the cAMP concentration as an index, using TIBCO Spotfire (TIBCO Software). The dilution concentration or the dilution solvent are changed as necessary.
The compounds of the present invention were tested essentially as described above.

[1] = CHO-K1, maximum effect, read-out: Emax

T1 sequence (P43220 24-463): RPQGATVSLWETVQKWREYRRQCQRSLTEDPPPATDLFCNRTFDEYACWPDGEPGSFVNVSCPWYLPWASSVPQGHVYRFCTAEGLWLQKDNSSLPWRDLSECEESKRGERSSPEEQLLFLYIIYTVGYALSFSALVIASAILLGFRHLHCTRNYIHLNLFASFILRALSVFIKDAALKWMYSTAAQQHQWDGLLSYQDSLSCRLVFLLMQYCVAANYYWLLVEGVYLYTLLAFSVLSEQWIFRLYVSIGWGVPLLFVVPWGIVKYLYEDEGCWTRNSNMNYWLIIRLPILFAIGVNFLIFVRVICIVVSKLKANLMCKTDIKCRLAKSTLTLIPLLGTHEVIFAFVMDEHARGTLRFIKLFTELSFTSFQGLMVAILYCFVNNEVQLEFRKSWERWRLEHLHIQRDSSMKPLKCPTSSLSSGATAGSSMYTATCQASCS

| Emax [1] [%] | EC50 [nM] | Emax (maximum effect) [%] | Compound |
| --- | --- | --- | --- |
| 93.3 | 2.33 |  | C[C@H]1c2c(cc(C(F)(F)F)c3c2OC(C)(c2ccc(Cl)cc2F)O3)CCN1Cc1nc2ccc(C(=O)O)cc2n1C[C@@H]1CCO1 (mixture of isomers) [Compound I-015] |
| 100 | 0.538 |  | O=C(O)c1ccc2nc(Cc3ccc4nc(C(F)(F)F)c(OCc5ccc(Cl)cc5F)nc4c3F)n(C[C@@H]3CCO3)c2c1F [Compound I-001] |
| 109 | 0.168 |  | Cc1cc2c(nc1OCc1ccc(Cl)cc1F)[C@H](C)N(Cc1nc3ccc(C(=O)O)cc3n1C[C@@H]1CCO1)CC2 [Compound I-002] |
| 102 | 3.6 |  | C[C@H]1c2cc(OCc3ccc(Cl)cn3)c(C(F)F)cc2CCN1Cc1nc2ccc(C(=O)O)cc2n1C[C@@H]1CCO1 [Compound I-003] |
| 105 | 2.88 |  | C[C@H]1c2cc(OCc3ccc(Cl)cc3)c(C(F)F)cc2CCN1Cc1nc2ccc(C(=O)O)cc2n1C[C@@H]1CCO1 [Compound I-004] |
| 111 | 3.39 |  | Cc1ccc(COc2cc3c(cc2C(F)F)CCN(Cc2nc4ccc(C(=O)O)cc4n2C[C@@H]2CCO2)[C@H]3C)cc1 [Compound I-005] |
| 130 | 0.308 |  | COc1cc(Cl)ccc1COc1cc2c(cc1C(F)F)CCN(Cc1nc3ccc(C(=O)O)cc3n1C[C@@H]1CCO1)[C@H]2C [Compound I-006] |
| 88 | 7.91 |  | C[C@H]1c2cc(OCc3ccccc3Cl)c(C(F)F)cc2CCN1Cc1nc2ccc(C(=O)O)cc2n1C[C@@H]1CCO1 [Compound I-007] |
| 107 | 3.89 |  | C[C@H]1c2cc(OCc3ccc(F)cc3F)c(C(F)F)cc2CCN1Cc1nc2ccc(C(=O)O)cc2n1C[C@@H]1CCO1 [Compound I-008] |
| 122 | 0.969 |  | C[C@H]1c2cc(OCc3ccc(Cl)cc3Cl)c(C(F)F)cc2CCN1Cc1nc2ccc(C(=O)O)cc2n1C[C@@H]1CCO1 [Compound I-009] |
| 117 | 1.99 |  | C[C@H]1c2cc(OCc3cc(F)c(Cl)cc3F)c(C(F)F)cc2CCN1Cc1nc2ccc(C(=O)O)cc2n1C[C@@H]1CCO1 [Compound I-010] |
| 102 | 16.1 |  | C[C@H]1c2cc(OCc3ccc(F)cc3)c(C(F)F)cc2CCN1Cc1nc2ccc(C(=O)O)cc2n1C[C@@H]1CCO1 [Compound I-011] |
| 108 | 1.25 |  | C[C@H]1c2cc(OCc3c(F)cc(Cl)cc3F)c(C(F)F)cc2CCN1Cc1nc2ccc(C(=O)O)cc2n1C[C@@H]1CCO1 [Compound I-012] |
| 114 | 4.21 |  | C[C@H]1c2cc(OCc3c(F)cc(F)cc3F)c(C(F)F)cc2CCN1Cc1nc2ccc(C(=O)O)cc2n1C[C@@H]1CCO1 [Compound I-013] |
| 128 | 0.171 |  | C[C@H]1c2nc(OCc3ccc(Cl)c4ccoc34)c(C(F)(F)F)cc2CCN1Cc1nc2ccc(C(=O)O)cc2n1C[C@@H]1CCO1 [Compound I-014] |
| 136 | 0.17 |  | C[C@H]1c2nc(OCc3ccc(Cl)cc3)c(Cl)cc2CCN1Cc1nc2ccc(C(=O)O)cc2n1C[C@@H]1CCO1 [Compound I-017] |
|  | 0.348 | 133 | Cc1ccc(COc2nc3c(cc2Cl)CCN(Cc2nc4ccc(C(=O)O)cc4n2C[C@@H]2CCO2)[C@H]3C)cc1 [Compound I-018] |
| 124 | 0.176 |  | C[C@H]1c2nc(OCc3ccc(F)cc3F)c(Cl)cc2CCN1Cc1nc2ccc(C(=O)O)cc2n1C[C@@H]1CCO1 [Compound I-019] |
| 135 | 0.0972 |  | C[C@H]1c2nc(OCc3ccc(Cl)cc3Cl)c(Cl)cc2CCN1Cc1nc2ccc(C(=O)O)cc2n1C[C@@H]1CCO1 [Compound I-020] |
| 112 | 0.0833 |  | C[C@H]1c2nc(OCc3cc(F)c(Cl)cc3F)c(Cl)cc2CCN1Cc1nc2ccc(C(=O)O)cc2n1C[C@@H]1CCO1 [Compound I-021] |
| 112 | 0.125 |  | C[C@H]1c2nc(OCc3ccc(C#N)cc3F)c(Cl)cc2CCN1Cc1nc2ccc(C(=O)O)cc2n1C[C@@H]1CCO1 [Compound I-022] |
| 130 | 0.443 |  | C[C@H]1c2nc(OCc3ccc(F)cc3)c(Cl)cc2CCN1Cc1nc2ccc(C(=O)O)cc2n1C[C@@H]1CCO1 [Compound I-023] |

| Emax [1] [%] | EC50 [nM] | Emax (maximum effect) [%] | Compound |
| --- | --- | --- | --- |
| 124 | 0.117 |  | C[C@H]1c2nc(OCc3c(F)cc(Cl)cc3F)c(Cl)cc2CCN1Cc1nc2ccc(C(=O)O)cc2n1C[C@@H]1CCO1 [Compound I-024] |
| 113 | 0.307 |  | C[C@H]1c2nc(OCc3c(F)cc(F)cc3F)c(Cl)cc2CCN1Cc1nc2ccc(C(=O)O)cc2n1C[C@@H]1CCO1 [Compound I-025] |
| 53.3 | 4210 |  | C[C@H]1c2c(cc(C(F)(F)F)c3c2O[C@](C)(c2ccc(Cl)cn2)O3)CCN1Cc1nc2ccc(C(=O)O)cc2n1C[C@@H]1CCO1 [Compound I-026] |
| 119 | 0.701 |  | C[C@H]1c2c(cc(C(F)(F)F)c3c2O[C@@](C)(c2ccc(Cl)cn2)O3)CCN1Cc1nc2ccc(C(=O)O)cc2n1C[C@@H]1CCO1 [Compound I-027] |
|  | 0.748 | 110 | Cc1ccc(COc2nc3c(cc2Cl)CCN(Cc2nc4ccc(C(=O)O)cc4n2C[C@@H]2CCO2)[C@H]3C)cc1 [Compound I-028] |
| 105 | 0.592 |  | C[C@H]1c2nc(OCc3ccc(F)cc3F)c(Cl)cc2CCN1Cc1nc2ccc(C(=O)O)nc2n1C[C@@H]1CCO1 [Compound I-029] |
| 123 | 0.37 |  | C[C@H]1c2nc(OCc3ccc(Cl)cc3Cl)c(Cl)cc2CCN1Cc1nc2ccc(C(=O)O)nc2n1C[C@@H]1CCO1 [Compound I-030] |
| 118 | 0.314 |  | C[C@H]1c2nc(OCc3cc(F)c(Cl)cc3F)c(Cl)cc2CCN1Cc1nc2ccc(C(=O)O)nc2n1C[C@@H]1CCO1 [Compound I-031] |
| 126 | 0.368 |  | C[C@H]1c2nc(OCc3ccc(C#N)cc3F)c(Cl)cc2CCN1Cc1nc2ccc(C(=O)O)nc2n1C[C@@H]1CCO1 [Compound I-032] |
| 111 | 0.437 |  | C[C@H]1c2nc(OCc3c(F)cc(Cl)cc3F)c(Cl)cc2CCN1Cc1nc2ccc(C(=O)O)nc2n1C[C@@H]1CCO1 [Compound I-033] |
| 103 | 0.249 |  | C[C@H]1c2nc(OCc3ccc(Cl)cc3F)c(Cl)cc2CCN1Cc1nc2ccc(C(=O)O)nc2n1C[C@@H]1CCO1 [Compound I-034] |
| 124 | 0.158 |  | Cc1ccc(COc2nc3c(cc2Cl)CCN(Cc2nc4ccc(C(=O)O)c(F)c4n2C[C@@H]2CCO2)[C@H]3C)cc1 [Compound I-035] |
| 113 | 0.432 |  | C[C@H]1c2nc(OCc3ccccc3Cl)c(Cl)cc2CCN1Cc1nc2ccc(C(=O)O)c(F)c2n1C[C@@H]1CCO1 [Compound I-036] |
| 122 | 0.105 |  | C[C@H]1c2nc(OCc3ccc(F)cc3F)c(Cl)cc2CCN1Cc1nc2ccc(C(=O)O)c(F)c2n1C[C@@H]1CCO1 [Compound I-037] |
| 126 | 0.0595 |  | C[C@H]1c2nc(OCc3ccc(Cl)cc3Cl)c(Cl)cc2CCN1Cc1nc2ccc(C(=O)O)c(F)c2n1C[C@@H]1CCO1 [Compound I-038] |
| 129 | 0.0679 |  | C[C@H]1c2nc(OCc3cc(F)c(Cl)cc3F)c(Cl)cc2CCN1Cc1nc2ccc(C(=O)O)c(F)c2n1C[C@@H]1CCO1 [Compound I-040] |
| 145 | 0.0637 |  | C[C@H]1c2nc(OCc3ccc(C#N)cc3F)c(Cl)cc2CCN1Cc1nc2ccc(C(=O)O)c(F)c2n1C[C@@H]1CCO1 [Compound I-041] |
| 127 | 0.208 |  | C[C@H]1c2nc(OCc3ccc(F)cc3)c(Cl)cc2CCN1Cc1nc2ccc(C(=O)O)c(F)c2n1C[C@@H]1CCO1 [Compound I-042] |
| 118 | 0.0647 |  | C[C@H]1c2cc(OCc3c(F)cc(Cl)cc3F)c(Cl)cc2CCN1Cc1nc2ccc(C(=O)O)c(F)c2n1C[C@@H]1CCO1 [Compound I-043] |
| 126 | 0.109 |  | C[C@H]1c2cc(OCc3c(F)cc(F)cc3F)c(Cl)cc2CCN1Cc1nc2ccc(C(=O)O)c(F)c2n1C[C@@H]1CCO1 [Compound I-044] |
| 131 | 0.0345 |  | C[C@H]1c2nc(OCc3ccc(Cl)cc3F)c(Cl)cc2CCN1Cc1nc2ccc(C(=O)O)c(F)c2n1C[C@@H]1CCO1 [Compound I-045] |
| 112 | 669 |  | C[C@H]1c2c(cc(C(F)(F)F)c3c2O[C@](C)(c2ccc(Cl)cc2F)O3)CCN1Cc1nc2ccc(C(=O)O)cc2n1C[C@@H]1CCO1 [Compound I-046] |
